The results in this text go back to patent publication US11208407B2, “Substituted phenyl compounds as indoleamine 2,3-dioxygenase (IDO) inhibitors” (Merck Sharp & Dohme Corp., priority 2017, dated 2021).

Structures are written as SMILES. pIC50: −log10 of the molar value.

IDO1, sequence (P14902 whole entry): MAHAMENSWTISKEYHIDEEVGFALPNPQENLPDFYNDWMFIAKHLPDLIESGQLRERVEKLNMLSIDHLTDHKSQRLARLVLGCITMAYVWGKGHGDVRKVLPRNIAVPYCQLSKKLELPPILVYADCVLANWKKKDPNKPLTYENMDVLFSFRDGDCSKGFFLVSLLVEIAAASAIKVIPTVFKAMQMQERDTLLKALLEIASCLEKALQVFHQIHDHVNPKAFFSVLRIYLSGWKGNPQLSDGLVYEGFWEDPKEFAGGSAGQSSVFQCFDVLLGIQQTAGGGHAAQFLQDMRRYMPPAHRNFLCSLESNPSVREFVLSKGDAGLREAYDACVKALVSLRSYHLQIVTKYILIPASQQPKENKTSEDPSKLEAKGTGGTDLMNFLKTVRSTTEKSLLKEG

This assay addresses IDO1 (Homo sapiens, UniProt P14902). In words: IDO1 Cellular Assay in HeLa Cells Stimulated with IFNγ. As to conditions: IFNγ 100 ng/mL, 300 uM L-tryptophan, about 48 hours, read-out: IDO HeLa Cell Assay, IC50. The class given is cell-based. The protocol:
Biological Assays IDO1 Cellular Assay in HeLa Cells Stimulated with IFNγ
HeLa cells were cultured in complete HeLa culture medium (90% EMEM, 10% heat-inactivated fetal bovine serum) and expanded to about 1×10^9 cells. The cells were then collected and frozen down at 1×10^7 cells/vial in 1 mL frozen medium (90% complete HeLa culture medium, 10% DMSO).
Compounds to be tested were serially diluted in ten 3-fold steps in DMSO starting from 10 mM DMSO stocks in Echo low volume plate(s). Compound dilutions or DMSO alone were then dispensed from the dilution plate(s) into Greiner black 384-well assay plate(s) (catalog #781086, 50 nL/well) using an Echo 550 acoustic liquid handler (Labcyte).
Frozen HeLa cells were thawed and transferred into HeLa assay medium (99% complete HeLa culture medium, 1% Pen/Strep) with 20 mL medium/vial of cells. The cells were spun down at 250 g in a table top centrifuge for 5 min and suspended in same volume of HeLa assay medium. The cells were then counted and adjusted to a density of 2×10^5 cells/mL in HeLa assay medium. Sterile L-tryptophan were added to the cells with final concentration of 300 uM L-tryptophan. A small aliquot (2 mL/plate) of HeLa cells were set aside and were not treated with IFNγ, to serve as the Max-E control.
HeLa cells with and without IFNγ were dispensed to the respective wells of 384-well assay plates containing the compounds. The plates were incubated for about 48 hours at a 37° C., 5% CO2 incubator. Afterwards, 12 μL of 0.5 M methyl isonipecotate in dimethyl sulfoxide were added into each well and the plates were sealed and incubated at 37° C. without CO2 overnight. The plates were centrifuged for 1 min at 200×g. The resulting fluorescence was measured in a Spectramax plate reader (Molecular Devices) with a 400 nm excitation filter and a 510 nm emission filter.
The fluorescence intensity of each well was corrected for the background observed in wells with non-IFNγ-treated cells and was expressed as a fraction of the intensity observed in wells of IFNγ-treated cells and DMSO only. Potencies were calculated by linear least squares fit to the four parameter logistic IC50 equation.
Regarding `N#Cc1cccc(C(=O)Nc2ccc(C3(c4nc5cc(C#N)cnc5[nH]4)CCC3)cc2Cl)c1` [Example 13, N-(2-chloro-4-(1-(6-cyano-3H-imidazo[4,5-b]pyridin-2-yl)cyclobutyl)phenyl)-3-cyanobenzamide], the negative logarithm of the IC50 (pIC50) is 8.14.

`O=C(Nc1ccc(C2(c3nc4cc(Br)cnc4[nH]3)CCC2)cc1Cl)c1cccc(Br)c1` [Example 12, 3-Bromo-N-(4-(1-(6-bromo-3H-imidazo[4,5-b]pyridin-2-yl)cyclobutyl)-2-chlorophenyl)benzamide]: the pIC50 was 8.76. Regarding `O=C(NC1CCCCC1)c1ccc(C2(c3nc4ncc(C(F)(F)F)cc4[nH]3)CCC2)cc1` [Example 34, N-cyclohexyl-4-{1-[6-(trifluoromethyl)-1H-imidazo[4,5-b]pyridin-2-yl]cyclobutyl}benzamide], the negative-log IC50 (pIC50) was 6.82.

Consider `N#Cc1cnc2[nH]c(C3(c4ccc(NC(=O)OC5CC5)cc4)CCC3)nc2c1` [Example 22, Cyclopropyl (4-(1-(6-cyano-3H-imidazo[4,5-b]pyridin-2-yl)cyclobutyl)phenyl)carbamate], for which the pIC50 was 7.38.

For the molecule `O=C(Nc1ccc(F)cc1F)c1ccc(C2(c3nc4ncc(C(F)(F)F)cc4[nH]3)CCC2)cc1` [Example 32, N-(2,4-difluorophenyl)-4-{1-[6-(trifluoromethyl)-1H-imidazo[4,5-b]pyridin-2-yl]cyclobutyl}benzamide], the pIC50 was 8.58. Under `O=C(Nc1cncc(Cl)c1)c1ccc(C2(c3nc4ncc(C(F)(F)F)cc4[nH]3)CCC2)cc1` [Example 33, N-(5-chloropyridin-3-yl)-4-{1-[6-(trifluoromethyl)-1H-imidazo[4,5-b]pyridin-2-yl]cyclobutyl}benzamide] stands 8.00; under `N#Cc1cccc(C(=O)Nc2ccc(C3(c4nc5ccc(Cl)cc5[nH]4)CC(O)C3)cc2)c1` (centres unmarked) [Example 23, N-(4-(1-(6-chloro-1H-benzo[d]imidazol-2-yl)-3-hydroxycyclobutyl)phenyl)-3-cyanobenzamide], 7.36; under `Cc1cccc(NC(=O)c2ccc(C3(c4nc5ncc(C#N)cc5[nH]4)CC(F)(F)C3)cc2)n1` [Example 29, 4-(1-(6-Cyano-1H-imidazo[4,5-b]pyridin-2-yl)-3,3-difluorocyclobutyl)-N-(6-methylpyridin-2-yl)benzamide], 6.23. Turning to `N#Cc1cccc(C(=O)Nc2ccc(C3(c4nc5cc(C(F)(F)F)cnc5[nH]4)CCC3)cc2)c1` [Example 6, 3-Cyano-N-(4-(1-(6-(trifluoromethyl)-3H-imidazo[4,5-b]pyridin-2-yl)cyclobutyl)phenyl)benzamide], the pIC50 was 8.50. On to `N#Cc1cnc2nc(C3(c4ccc(C(=O)NC5CCCCC5)cc4)CC(F)(F)C3)[nH]c2c1` [Example 28, 4-(1-(6-Cyano-1H-imidazo[4,5-b]pyridin-2-yl)-3,3-difluorocyclobutyl)-N-cyclohexylbenzamide], for which the negative logarithm of the IC50 (pIC50) was 6.05. Under `O=C(Nc1cccc(F)c1)c1ccc(C2(c3nc4ncc(C(F)(F)F)cc4[nH]3)CCC2)cc1` [Example 31, N-(3-fluorophenyl)-4-{1-[6-(trifluoromethyl)-1H-imidazo[4,5-b]pyridin-2-yl]cyclobutyl}benzamide] stands 8.68; under `N#Cc1cnc2nc(C3(c4ccc(NC(=O)c5cccc(Cl)c5)cc4)CCC3)[nH]c2c1` [Example 2, 3-Chloro-N-(4-(1-(6-cyano-1H-imidazo[4,5-b]pyridin-2-yl)cyclobutyl)phenyl)benzamide], 8.70. Take `O=C(Nc1cc(Cl)ccc1F)c1ccc(C2(c3nc4ncc(C(F)(F)F)cc4[nH]3)CCC2)cc1` [Example 37, N-(5-chloro-2-fluorophenyl)-4-{1-[6-(trifluoromethyl)-1H-imidazo[4,5-b]pyridin-2-yl]cyclobutyl}benzamide]: the pIC50 was 8.69. Turning to `N#Cc1cccc(C(=O)Nc2ccc(C3(c4nc5cc(C#N)cnc5[nH]4)CCC3)cc2C#N)c1` [Example 14, 3-cyano-N-(2-cyano-4-(1-(6-cyano-3H-imidazo[4,5-b]pyridin-2-yl)cyclobutyl)phenyl)benzamide], the pIC50 was 6.85.

As to `COc1cc(C(F)(F)F)ncc1-c1ccc(C2(c3nc4cc(C(F)(F)F)cnc4[nH]3)COC2)cc1` [Example 41, 2-(3-{4-[4-methoxy-6-(trifluoromethyl)pyridin-3-yl]phenyl}oxetan-3-yl)-6-(trifluoromethyl)-3H-imidazo[4,5-b]pyridine], the negative-log IC50 (pIC50) is 8.12. For the molecule `N#Cc1ccc(F)c(NC(=O)c2ccc(C3(c4nc5ncc(C(F)(F)F)cc5[nH]4)CCC3)cc2)c1` [Example 36, N-(5-cyano-2-fluorophenyl)-4-{1-[6-(trifluoromethyl)-1H-imidazo[4,5-b]pyridin-2-yl]cyclobutyl}benzamide], the pIC50 is 8.11. For `N#Cc1cccc(NC(=O)c2ccc(C3(c4nc5ncc(C(F)(F)F)cc5[nH]4)CCC3)cc2)c1` [Example 30, N-(3-cyanophenyl)-4-{1-[6-(trifluoromethyl)-1H-imidazo[4,5-b]pyridin-2-yl]cyclobutyl}benzamide], the pIC50 is 8.29.

As for `N#Cc1cccc(NC(=O)c2ccc(C3(c4nc5ncc(C#N)cc5[nH]4)CC(F)(F)C3)cc2)c1` [Example 38, 4-[1-(6-cyano-1H-imidazo[4,5-b]pyridin-2-yl)-3,3-difluorocyclobutyl]-N-(3-cyanophenyl)benzamide], the pIC50 is 8.29.

Take `O=C(Nc1ccc(C2(c3nc4ccccc4[nH]3)CCC2)cc1)c1cccc(Cl)c1` [Example 4, N-(4-(1-(1H-benzo[d]imidazol-2-yl)cyclobutyl)phenyl)-3-chlorobenzamide]: the pIC50 was 8.52. Under `Cn1ccc(Nc2ccc(C3(c4nc5cc(C#N)cnc5[nH]4)CCC3)cc2CO)n1` [Example 21, 2-(1-(3-(Hydroxymethyl)-4-((1-methyl-1H-pyrazol-3-yl)amino)phenyl)cyclobutyl)-3H-imidazo[4,5-b]pyridine-6-carbonitrile] stands 6.09; under `C=Cc1cc(C2(c3nc4cc(C#N)cnc4[nH]3)CCC2)ccc1Nc1ccn(C)n1` [Example 20, 2-(1-(4-((1-Methyl-1H-pyrazol-3-yl)amino)-3-vinylphenyl)cyclobutyl)-3H-imidazo[4,5-b]pyridine-6-carbonitrile], 6.75; under `Cc1cc(C2(c3nc4cc(C#N)cnc4[nH]3)CCC2)ccc1NC(=O)c1cccc(C#N)c1` [Example 15, 3-Cyano-N-(4-(1-(6-cyano-3H-imidazo[4,5-b]pyridin-2-yl)cyclobutyl)-2-methylphenyl)benzamide], 7.80. Then `CC(C)CNC(=O)c1ccc(C2(c3nc4ncc(C(F)(F)F)cc4[nH]3)CCC2)cc1` [Example 35, N-(2-methylpropyl)-4-{1-[6-(trifluoromethyl)-1H-imidazo[4,5-b]pyridin-2-yl]cyclobutyl}benzamide], with 7.40.
